# Test results: patent publication US20080234173A1, “PRESERVATIVE COMPOSITIONS” (TAKASAGO INTERNATIONAL CORPORATION, priority 2007, published 2008)
# Entries after “also recorded” stand apart in the source; their conditions may differ.
# System: Pseudomonas aeruginosa ATCC 15442
# Assay: Anti-Bacterial Test Method: log reduction of bacterial colonies after 3 days exposure in water
# Type: cell-based
# Experimental: Materials were dissolved in ethanol (or deionized water in the case of water soluble preservatives) to a concentration of 100 mg/ml. 30 μl of this solution added to 3 ml deionized water gave a final concentration of 0.1%. (If necessary, solutions are sonicated for 15 minutes and allowed to equilibrate back to ambient temperature.) Bacterial cultures were added to this solution, mixed on a vortex mixer and a dock started. After 3 days, an aliquot is sampled and added to a D/E (Dey/Engley) neutralization broth (marketed by Becton and Dickinson Cγ) and plated onto solid media. Bacterial colonies are counted after overnight incubation. The selected indicator microorganism was Pseudomonas aeruginosa ATCC 15442.
# All results are quoted as the reduction in activity expressed as a logarithm to the base 10 measured after 3 days incubation and compared with the inocculum unless otherwise noted.
# All percentages are quoted as weight per unit volume (e.g. g/ml) unless indicated otherwise.
structure (smiles),measurement,setting,value
OCc1ccccc1 [Benzyl alcohol],Log Reduction after 3 days,0.025% Benzyl alcohol alone,0.2 log
"Cl/C=C\C[N+]12CN3CN(CN(C3)C1)C2.[Cl-] [Dowicil 200, cis-1-3-chloroallyl-3,5,7-triaza-1-azoniaadamantane chloride]","log reduction, compared with the ethanol solvent control",0.05% Dowicil 200 alone,1.3 log
same,log reduction after 3 days vs Inocculum,0.05% Dowicil (line of Test Example 14 without fragrance),0.7 log
CCOC(=O)c1ccccc1C(=O)OCC [diethyl phthalate],effect of addition of diethyl phthalate on antibacterial / preservative efficacy,0.1% or 0.2% diethyl phthalate added to fragrance ingredient + preservative mixture,detrimental to antibacterial efficacy; also recorded: detrimental to preservative efficacy
"OCCOc1ccccc1 [phenoxyethanol, 2-Phenoxyethanol]","log reduction, compared with the ethanol solvent control, after 3 days",0.1% phenoxyethanol alone,0.4 log
